Experimental data from patent US20240116985A1, “STAPLED PEPTIDES AND METHODS THEREOF” (priority 2020, published 2024).

Biological target: T1, full-length beta-Catenin (Uniprot ID P35222) (Homo sapiens, UniProt P35222)
T1 construct: 10 nM full-length beta-Catenin (Uniprot ID P35222)
T1 sequence (P35222 1-781): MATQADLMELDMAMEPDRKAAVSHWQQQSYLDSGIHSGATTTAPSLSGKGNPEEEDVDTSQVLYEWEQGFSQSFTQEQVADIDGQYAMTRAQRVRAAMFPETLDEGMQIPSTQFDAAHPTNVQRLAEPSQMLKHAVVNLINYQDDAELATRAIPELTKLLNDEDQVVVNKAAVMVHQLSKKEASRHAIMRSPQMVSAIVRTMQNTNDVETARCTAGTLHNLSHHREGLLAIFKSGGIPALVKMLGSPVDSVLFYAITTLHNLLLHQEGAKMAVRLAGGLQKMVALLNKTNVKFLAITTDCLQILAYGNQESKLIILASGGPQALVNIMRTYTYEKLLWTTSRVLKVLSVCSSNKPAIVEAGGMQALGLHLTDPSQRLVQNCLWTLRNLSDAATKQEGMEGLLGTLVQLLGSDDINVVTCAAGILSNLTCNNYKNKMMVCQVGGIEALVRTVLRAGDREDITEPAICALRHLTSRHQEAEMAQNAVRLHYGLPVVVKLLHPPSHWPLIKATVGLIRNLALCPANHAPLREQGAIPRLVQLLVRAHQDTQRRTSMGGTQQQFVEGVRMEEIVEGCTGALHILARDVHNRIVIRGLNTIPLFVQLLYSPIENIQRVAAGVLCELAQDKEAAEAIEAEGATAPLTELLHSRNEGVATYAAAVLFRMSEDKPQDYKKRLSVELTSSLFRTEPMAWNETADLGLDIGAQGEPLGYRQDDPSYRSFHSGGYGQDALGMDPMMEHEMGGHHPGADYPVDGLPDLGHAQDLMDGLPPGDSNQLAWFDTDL
Test: Fluorescence polarization IC50 (beta-catenin / 5FAM-TCF4 10-53 competition)
Assay type: binding
Details: fluorescence polarization; read-out: beta-Catenin FP IC50

| SMILES | IC50 [µM] |
| --- | --- |
| CC(=O)N1CCC[C@]12CC=CCCCC1(CCCC=CCCCOC(=O)N3CC[C@@](C(=O)N[C@@H](Cc4ccccc4)C(=O)N[C@@H](Cc4csc5ccccc45)C(=O)N[C@@H](CCC(N)=O)C(N)=O)(C3)NC(=O)[C@H](CC(N)=O)NC(=O)[C@H](Cc3ccccc3)NC(=O)[C@H](C)NC(=O)[C@H](CCCCNC(C)C)NC(=O)[C@H](CCC(N)=O)NC(=O)[C@H](CC(=O)O)NC1=O)NC(=O)[C@H](CC1CCCCC1)NC(=O)[C@H](CC(N)=O)NC2=O (stereo partly drawn) [I-2113, Ac-PL3-Asn-Cha-B5-Asp-Gln-iPrLys-Ala-Phe-Asn-PyrS2-Phe-BztA-Gln-NH2] | 0.164 |
| CC(=O)N1CCC[C@]12CC=CCCCC1(CCCC=CCCCOC(=O)N3CC[C@@](C(=O)N[C@@H](Cc4ccsc4)C(=O)N[C@@H](Cc4csc5ccccc45)C(=O)N[C@@H](CCC(N)=O)C(N)=O)(C3)NC(=O)[C@H](CCO)NC(=O)[C@H](Cc3cccc(C(=O)O)c3)NC(=O)[C@H](C)NC(=O)[C@H](C)NC(=O)[C@H](Cc3ccc(O)cc3)NC(=O)[C@H](CC(=O)O)NC1=O)NC(=O)[C@H](CC(C)(C)C)NC(=O)[C@H](CC(=O)O)NC2=O (stereo partly drawn) [I-2124, Ac-PL3-Asp-Npg-B5-Asp-Tyr-Ala-Ala-3COOHF-Hse-PyrS2-3Thi-BztA-Gln-NH2] | 0.029 |
| CC(=O)N1CCC[C@]12CC=CCCCC1(CCCC=CCCCOC(=O)N3CC[C@@](C(=O)N[C@@H](Cc4ccsc4)C(=O)N[C@@H](Cc4csc5ccccc45)C(=O)N[C@@H](CCC(N)=O)C(N)=O)(C3)NC(=O)[C@H](CCO)NC(=O)[C@H](Cc3cccc(C(=O)O)c3)NC(=O)[C@H](C)NC(=O)[C@H](C)NC(=O)[C@H](Cc3ccc(O)cc3)NC(=O)[C@H](CC(=O)O)NC1=O)NC(=O)[C@H](CC(C)(C)C)NC(=O)[C@H](CC(=O)O)NC2=O (stereo partly drawn) [I-2125, Ac-PL3-Asp-Npg-B5-Asp-Tyr-Ala-Ala-3COOHF-Hse-PyrS2-3Thi-BztA-Gln-NH2] | 0.026 |
| CC(=O)N1CCC[C@]12CC=CCCCC1(CCCC=CCCCOC(=O)N3CC[C@@](C(=O)N[C@@H](Cc4ccsc4)C(=O)N[C@@H](Cc4csc5ccccc45)C(=O)N[C@@H](CCC(N)=O)C(N)=O)(C3)NC(=O)[C@H](CC(N)=O)NC(=O)[C@H](Cc3cccc(C(=O)O)c3)NC(=O)[C@H](C)NC(=O)[C@H](C)NC(=O)[C@H](Cc3c[nH]c4ccccc34)NC(=O)[C@H](CC(=O)O)NC1=O)NC(=O)[C@H](CC(C)(C)C)NC(=O)[C@H](CC(=O)O)NC2=O (stereo partly drawn) [I-2127, Ac-PL3-Asp-Npg-B5-Asp-Trp-Ala-Ala-3COOHF-Asn-PyrS2-3Thi-BztA-Gln-NH2] | 0.036 |
| CC(=O)N1CCC[C@]12CC=CCCCC1(CCCC=CCCCOC(=O)N3CC[C@@](C(=O)N[C@@H](Cc4ccsc4)C(=O)N[C@@H](Cc4csc5ccccc45)C(=O)N[C@@H](CCC(N)=O)C(N)=O)(C3)NC(=O)[C@H](CC(C)C)NC(=O)[C@H](Cc3cccc(C(=O)O)c3)NC(=O)[C@H](C)NC(=O)[C@H](C)NC(=O)[C@H](Cc3c[nH]c4ccccc34)NC(=O)[C@H](CC(=O)O)NC1=O)NC(=O)[C@H](CC(C)(C)C)NC(=O)[C@H](CC(=O)O)NC2=O (stereo partly drawn) [I-2129, Ac-PL3-Asp-Npg-B5-Asp-Trp-Ala-Ala-3COOHF-Leu-PyrS2-3Thi-BztA-Gln-NH2] | 0.105 |
| CC(=O)N1CCC[C@]12CC=CCCCC1(CCCC=CCCCOC(=O)N3CC[C@@](C(=O)N[C@@H](Cc4ccsc4)C(=O)N[C@@H](Cc4csc5ccccc45)C(=O)N[C@@H](CCC(N)=O)C(N)=O)(C3)NC(=O)[C@H](CC(N)=O)NC(=O)[C@H](Cc3ccccc3)NC(=O)[C@H](C)NC(=O)[C@H](C)NC(=O)[C@H]([C@@H](C)O)NC(=O)[C@H](CC(N)=O)NC1=O)NC(=O)[C@H](CC(C)(C)C)NC(=O)[C@H](CN(CC(=O)O)CC(F)(F)F)NC2=O (stereo partly drawn) [I-2130, Ac-PL3-TfeGA-Npg-B5-Asn-Thr-Ala-Ala-Phe-Asn-PyrS2-3Thi-BztA-Gln-NH2] | 4.92 |
| CC(=O)N1CCC[C@]12CC=CCCCC1(CCCC=CCCCOC(=O)N3CC[C@@](C(=O)N[C@@H](Cc4ccsc4)C(=O)N[C@@H](Cc4csc5ccccc45)C(=O)N[C@@H](CCC(N)=O)C(N)=O)(C3)NC(=O)[C@H](CC(N)=O)NC(=O)[C@H](Cc3ccccc3)NC(=O)[C@H](C)NC(=O)[C@H](C)NC(=O)[C@H]([C@@H](C)O)NC(=O)[C@H](CC(N)=O)NC1=O)NC(=O)[C@H](CC(C)(C)C)NC(=O)[C@H](CN(CC(=O)O)CC(F)(F)F)NC2=O (stereo partly drawn) [I-2131, Ac-PL3-TfeGA-Npg-B5-Asn-Thr-Ala-Ala-Phe-Asn-PyrS2-3Thi-BztA-Gln-NH2] | 3.22 |

The remaining lines, values ahead:

| IC50 [µM] | SMILES |
| --- | --- |
| 8.75 | CC(=O)N1CCC[C@]12CC=CCCCC1(CCCC=CCCCOC(=O)N3CC[C@@](C(=O)N[C@@H](Cc4ccsc4)C(=O)N[C@@H](Cc4csc5ccccc45)C(=O)N[C@@H](CCC(N)=O)C(N)=O)(C3)NC(=O)[C@H](CC(N)=O)NC(=O)[C@H](Cc3ccccc3)NC(=O)[C@H](C)NC(=O)[C@H](C)NC(=O)[C@H]([C@@H](C)O)NC(=O)[C@H](CC(N)=O)NC1=O)NC(=O)[C@H](CC(C)(C)C)NC(=O)[C@H](CCCC(=O)O)NC2=O (stereo partly drawn) [I-2133, Ac-PL3-Aad-Npg-B5-Asn-Thr-Ala-Ala-Phe-Asn-PyrS2-3Thi-BztA-Gln-NH2] |
| 3.41 | CC(=O)N1CCC[C@]12CC=CCCCC1(CCCC=CCCCOC(=O)N3CC[C@@](C(=O)N[C@@H](Cc4ccsc4)C(=O)N[C@@H](Cc4csc5ccccc45)C(=O)N[C@@H](CCC(N)=O)C(N)=O)(C3)NC(=O)[C@H](CC(N)=O)NC(=O)[C@H](Cc3ccccc3)NC(=O)[C@H](C)NC(=O)[C@H](C)NC(=O)[C@H]([C@@H](C)O)NC(=O)[C@H](CC(N)=O)NC1=O)NC(=O)[C@H](CC(C)(C)C)NC(=O)[C@H](Cc1cccc(C(=O)O)c1)NC2=O (stereo partly drawn) [I-2135, Ac-PL3-3COOHF-Npg-B5-Asn-Thr-Ala-Ala-Phe-Asn-PyrS2-3Thi-BztA-Gln-NH2] |
| 1.01 | CC(=O)N1CCC[C@]12CC=CCCCC1(CCCC=CCCCOC(=O)N3CC[C@@](C(=O)N[C@@H](Cc4ccsc4)C(=O)N[C@@H](Cc4csc5ccccc45)C(=O)N[C@@H](Cc4c[nH]c5ccccc45)C(N)=O)(C3)NC(=O)[C@H](CC(N)=O)NC(=O)[C@H](Cc3ccccc3)NC(=O)[C@H](C)NC(=O)[C@H](C)NC(=O)[C@H]([C@@H](C)O)NC(=O)[C@H](CC(N)=O)NC1=O)NC(=O)[C@H](CC(C)(C)C)NC(=O)[C@H](CC(=O)O)NC2=O (stereo partly drawn) [I-2138, Ac-PL3-Asp-Npg-B5-Asn-Thr-Ala-Ala-Phe-Asn-PyrS2-3Thi-BztA-Trp-NH2] |
| 0.97 | CC(=O)N1CCC[C@]12CC=CCCCC1(CCCC=CCCCOC(=O)N3CC[C@@](C(=O)N[C@@H](Cc4ccsc4)C(=O)N[C@@H](Cc4csc5ccccc45)C(=O)N[C@@H](Cc4c[nH]c5ccccc45)C(N)=O)(C3)NC(=O)[C@H](CC(N)=O)NC(=O)[C@H](Cc3ccccc3)NC(=O)[C@H](C)NC(=O)[C@H](C)NC(=O)[C@H]([C@@H](C)O)NC(=O)[C@H](CC(N)=O)NC1=O)NC(=O)[C@H](CC(C)(C)C)NC(=O)[C@H](CC(=O)O)NC2=O (stereo partly drawn) [I-2139, Ac-PL3-Asp-Npg-B5-Asn-Thr-Ala-Ala-Phe-Asn-PyrS2-3Thi-BztA-Trp-NH2] |
| 0.233 | CC(=O)N1CCC[C@]12CC=CCCCC1(CCCC=CCCCOC(=O)N3CC[C@@](C(=O)N[C@@H](Cc4ccsc4)C(=O)N[C@@H](Cc4csc5ccccc45)C(=O)N[C@@H](Cc4c[nH]cn4)C(N)=O)(C3)NC(=O)[C@H](CC(N)=O)NC(=O)[C@H](Cc3ccccc3)NC(=O)[C@H](C)NC(=O)[C@H](C)NC(=O)[C@H]([C@@H](C)O)NC(=O)[C@H](CC(N)=O)NC1=O)NC(=O)[C@H](CC(C)(C)C)NC(=O)[C@H](CC(=O)O)NC2=O (stereo partly drawn) [I-2140, Ac-PL3-Asp-Npg-B5-Asn-Thr-Ala-Ala-Phe-Asn-PyrS2-3Thi-BztA-His-NH2] |
| 0.31 | CC(=O)N1CCC[C@]12CC=CCCCC1(CCCC=CCCCOC(=O)N3CC[C@@](C(=O)N[C@@H](Cc4ccsc4)C(=O)N[C@@H](Cc4csc5ccccc45)C(=O)N[C@@H](Cc4c[nH]cn4)C(N)=O)(C3)NC(=O)[C@H](CC(N)=O)NC(=O)[C@H](Cc3ccccc3)NC(=O)[C@H](C)NC(=O)[C@H](C)NC(=O)[C@H]([C@@H](C)O)NC(=O)[C@H](CC(N)=O)NC1=O)NC(=O)[C@H](CC(C)(C)C)NC(=O)[C@H](CC(=O)O)NC2=O (stereo partly drawn) [I-2141, Ac-PL3-Asp-Npg-B5-Asn-Thr-Ala-Ala-Phe-Asn-PyrS2-3Thi-BztA-His-NH2] |
| 0.217 | CC(=O)N1CCC[C@]12CC=CCCCC1(CCCC=CCCCOC(=O)N3CC[C@@](C(=O)N[C@@H](Cc4ccsc4)C(=O)N[C@@H](Cc4csc5ccccc45)C(=O)N[C@@H](C)C(N)=O)(C3)NC(=O)[C@H](CC(N)=O)NC(=O)[C@H](Cc3ccccc3)NC(=O)[C@H](C)NC(=O)[C@H](C)NC(=O)[C@H]([C@@H](C)O)NC(=O)[C@H](CC(N)=O)NC1=O)NC(=O)[C@H](CC(C)(C)C)NC(=O)[C@H](CC(=O)O)NC2=O (stereo partly drawn) [I-2143, Ac-PL3-Asp-Npg-B5-Asn-Thr-Ala-Ala-Phe-Asn-PyrS2-3Thi-BztA-Ala-NH2] |
